One experiment relates to A375 cells. Briefly: cells. The settings on record: Homo sapiens, A-375, read-out: A375 Viability EC50.
Experiment [1] addresses RAF kinases (Homo sapiens, UniProt P04049). Briefly: biochemical.
Experiment [2] has as its target RAF kinases (Homo sapiens, UniProt P15056). Briefly: biochemical.
Experiment [3] concerns the target RAF kinases (Homo sapiens, UniProt P15056, V600E). Particulars: read-out: BRAF V600E Kd; BRAF V600E.
For experiment [4], the system named is MEK1 phosphorylation in the A375 human melanoma cell line. Briefly: cells. The settings on record: A-375, read-out: pMEK IC50.

Chain of RAF kinases (Homo sapiens, UniProt P15056) (P15056 whole entry): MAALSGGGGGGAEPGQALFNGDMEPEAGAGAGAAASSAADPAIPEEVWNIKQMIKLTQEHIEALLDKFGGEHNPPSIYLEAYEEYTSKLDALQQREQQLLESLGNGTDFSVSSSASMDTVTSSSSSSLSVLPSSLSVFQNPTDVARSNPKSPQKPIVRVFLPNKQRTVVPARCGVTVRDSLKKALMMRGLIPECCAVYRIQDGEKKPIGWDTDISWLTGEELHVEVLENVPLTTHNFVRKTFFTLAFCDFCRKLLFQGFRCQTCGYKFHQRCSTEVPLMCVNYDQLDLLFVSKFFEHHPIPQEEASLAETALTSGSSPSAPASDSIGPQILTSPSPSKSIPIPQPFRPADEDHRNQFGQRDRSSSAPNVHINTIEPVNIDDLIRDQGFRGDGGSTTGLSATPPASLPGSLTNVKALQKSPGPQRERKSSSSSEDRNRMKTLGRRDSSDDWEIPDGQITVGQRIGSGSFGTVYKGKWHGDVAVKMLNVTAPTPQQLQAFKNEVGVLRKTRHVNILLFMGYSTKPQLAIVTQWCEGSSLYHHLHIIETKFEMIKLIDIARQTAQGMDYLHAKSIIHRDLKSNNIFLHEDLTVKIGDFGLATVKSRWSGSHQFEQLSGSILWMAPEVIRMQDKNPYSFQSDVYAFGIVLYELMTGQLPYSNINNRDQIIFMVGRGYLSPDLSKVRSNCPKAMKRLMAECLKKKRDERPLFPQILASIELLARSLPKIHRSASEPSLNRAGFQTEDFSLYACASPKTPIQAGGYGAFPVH
Chain of RAF kinases (Homo sapiens, UniProt P15056, V600E) (P15056 whole entry V600E): as the sequence (P15056 whole entry) above, with V600E counted along it
Chain of RAF kinases (Homo sapiens, UniProt P04049) (P04049 whole entry): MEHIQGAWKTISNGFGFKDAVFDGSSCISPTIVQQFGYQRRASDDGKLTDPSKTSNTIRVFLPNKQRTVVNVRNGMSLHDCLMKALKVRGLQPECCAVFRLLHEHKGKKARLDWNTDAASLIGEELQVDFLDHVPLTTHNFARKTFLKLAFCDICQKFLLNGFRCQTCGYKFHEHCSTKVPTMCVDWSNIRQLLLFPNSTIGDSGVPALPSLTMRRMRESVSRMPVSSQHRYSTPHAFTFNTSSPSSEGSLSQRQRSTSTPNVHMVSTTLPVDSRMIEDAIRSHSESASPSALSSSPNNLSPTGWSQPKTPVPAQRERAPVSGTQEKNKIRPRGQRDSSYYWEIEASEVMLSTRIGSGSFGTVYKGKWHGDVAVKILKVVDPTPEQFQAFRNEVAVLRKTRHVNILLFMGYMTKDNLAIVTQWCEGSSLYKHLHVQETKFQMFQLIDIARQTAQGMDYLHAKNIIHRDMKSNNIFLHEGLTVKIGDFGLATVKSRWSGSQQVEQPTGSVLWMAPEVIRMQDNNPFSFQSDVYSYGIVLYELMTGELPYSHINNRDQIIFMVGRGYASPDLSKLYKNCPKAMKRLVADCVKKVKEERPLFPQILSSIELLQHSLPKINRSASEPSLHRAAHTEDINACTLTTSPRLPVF

The term EC50 denotes the concentration that produces a half-maximal response. Usually Kd stands for the equilibrium constant for the complex coming apart. The term IC50 denotes the midpoint of a concentration-inhibition curve. Regarding `COc1cc2c(Oc3cccc(NC(=O)Nc4cc(C(F)(F)F)nn4-c4ccccc4)c3)ncnc2cc1OCCN1CCOCC1` [Ex 396, 1-(3-(6-Methoxy-7-(2-morpholinoethoxy)quinazolin-4-yloxy)phenyl)-3-(1-phenyl-3-(trifluoromethyl)-1H-pyrazol-5-yl)urea], the EC50 with A375 cells was 500 to 1000 nM. For the same molecule, the figures for the Kd at RAF kinases [1], on RAF kinases [2] and at RAF kinases [3] were 500 to 1000 nM, 500 to 1000 nM and < 250 nM, respectively. Besides, the IC50 in experiment [4] is 500 to 1000 nM.

Take `COCCOc1cc2ncnc(Sc3cccc(NC(=O)Nc4cc(C(C)(C)F)no4)c3)c2cc1OC` [Ex 234, 1-(3-(2-fluoropropan-2-yl)isoxazol-5-yl)-3-(3-(6-methoxy-7-(2-methoxyethoxy)quinazolin-4-ylthio)phenyl)urea]: the EC50 in the experiment with A375 cells was > 1000 nM. Besides, the Kd on RAF kinases [1] was 250 to 500 nM; at RAF kinases [2], 250 to 500 nM; at RAF kinases [3], < 250 nM. In experiment [4], the IC50 is < 250 nM.

For the molecule `CCOc1cc2ncnc(Oc3cccc(NC(=O)Nc4cc(C(C)(C)C)nn4-c4ccccc4)c3)c2cc1OC` [Ex 387, 1-(3-tert-butyl-1-phenyl-1H-pyrazol-5-yl)-3-(3-(7-ethoxy-6-methoxyquinazolin-4-yloxy)phenyl)urea], the Kd was 500 to 1000 nM on RAF kinases [1], 500 to 1000 nM at RAF kinases [2] and < 250 nM at RAF kinases [3]. Also, in experiment [4], the concentration for half-maximal inhibition (IC50) is < 250 nM.

For `COc1cc2ncnc(Oc3cccc(NC(=O)Nc4cc(C(C)(C)C)nn4-c4ccccc4F)c3)c2cc1OC` [Ex 372, 1-(3-tert-butyl-1-(2-fluorophenyl)-1H-pyrazol-5-yl)-3-(3-(6,7-dimethoxyquinazolin-4-yloxy)phenyl)urea], the Kd is 500 to 1000 nM at RAF kinases [1], 500 to 1000 nM on RAF kinases [2] and < 250 nM on RAF kinases [3]. For the same molecule, in experiment [4], the IC50 was < 250 nM.

For the molecule `CCOc1cc2c(Oc3cccc(NC(=O)Nc4cc(C(C)(C)C)nn4-c4ccccc4)c3)ncnc2cc1OC` [Ex 390, 1-(3-tert-butyl-1-phenyl-1H-pyrazol-5-yl)-3-(3-(6-ethoxy-7-methoxyquinazolin-4-yloxy)phenyl)urea], the Kd at RAF kinases [1] is 500 to 1000 nM; on RAF kinases [2] it was 250 to 500 nM; on RAF kinases [3], < 250 nM. The half-inhibitory concentration (IC50) in experiment [4] is < 250 nM.

For `COc1cc2ncnc(Oc3cccc(NC(=O)Nc4cc(C(C)(C)C)on4)c3)c2cc1OCCN1CCC(CO)CC1` [Ex 17, 1-(5-tert-butylisoxazol-3-yl)-3-(3-(6-(2-(4-(hydroxymethyl)piperidin-1-yl)ethoxy)-7-methoxyquinazolin-4-yloxy)phenyl)urea], in the experiment with A375 cells, the concentration for a half-maximal effect (EC50) fell in the range of 250 to 500 nM. In addition, the Kd at RAF kinases [1] and at RAF kinases [2] was 500 to 1000 nM in each case. Besides, the concentration for half-maximal inhibition (IC50) in experiment [4] lay within 250 to 500 nM.

In the case of `COc1cc2c(Sc3cccc(NC(=O)Nc4cc(C(C)(C)C)on4)c3)ncnc2cc1OCCCN1CCN(CCO)CC1` [Ex 75, 1-(5-tert-butylisoxazol-3-yl)-3-(3-(7-(3-(4-(2-hydroxyethyl)piperazin-1-yl)propoxy)-6-methoxyquinazolin-4-ylthio)phenyl)urea], the EC50 in the experiment on A375 cells is > 1000 nM. Also, the Kd at RAF kinases [1] and at RAF kinases [2] was 250 to 500 nM throughout. The IC50 in experiment [4] is < 250 nM.

Take `COc1cc2ncnc(Sc3cccc(NC(=O)Nc4cc(C(C)(C)C)on4)c3)c2cc1OCCCN1CCC(CO)CC1` [Ex 58, 1-(5-tert-butylisoxazol-3-yl)-3-(3-(6-(3-(4-(hydroxymethyl)piperidin-1-yl)propoxy)-7-methoxyquinazolin-4-ylthio)phenyl)urea]: in the experiment on A375 cells, the concentration for a half-maximal effect (EC50) is > 1000 nM. In addition, the Kd at RAF kinases [1] lay in the range of 500 to 1000 nM; on RAF kinases [2] it was 250 to 500 nM. Also, in experiment [4], the IC50 is < 250 nM.

As for `COc1cc2ncnc(Oc3cccc(NC(=O)Nc4cc(C(C)(C)C)on4)c3)c2cc1OCCN1CCN(CCO)CC1` [Ex 19, 1-(5-tert-butylisoxazol-3-yl)-3-(3-(6-(2-(4-(2-hydroxyethyl)piperazin-1-yl)ethoxy)-7-methoxyquinazolin-4-yloxy)phenyl)urea], in the experiment on A375 cells, the EC50 was 250 to 500 nM. For the same molecule, the Kd on RAF kinases [1] and on RAF kinases [2] was 250 to 500 nM throughout. In addition, the IC50 in experiment [4] was < 250 nM.

(Values after patent US8618289B2 (Ambit Biosciences Corporation, priority 2008, dated 2013).)
